Test results reported in US4871774A, “Medical treatment” (The Boots Company PLC, priority 1987, dated 1989).

Columns and labels:
[1] = system: dopamine reuptake; unilateral nigrostriatal lesioned rats; experiment: Ipsilateral circling behaviour of unilateral nigrostriatal (6-OHDA) lesioned rats; assay type: in vivo, rat (CD); conditions: 30 mg/kg oral
Excerpt: The two tracts of the nigrostriatal dopamine system are independent and are located on either side of the midline of the brain. When one tract is destroyed using the specific neurotoxin, 6-hydroxydopamine (6-OHDA), rats will display characteristic circling behaviour after injection of dopaminergic drugs. The direction of rotation, however, is dependent on the stimulus employed. Drugs which inhibit dopamine reuptake can only function on the unlesioned side of the brain and induce circling towards the lesion site (known as ipsilateral circling.)
Male CD rats (250-300 g: Charles River) were anaesthetised with `Equithesin` type anaesthetic (3.2 ml/kg i.p.) and secured in a stereotaxic frame (David Kopf Small Animal Stereotaxic Instrument DKI 900). After shaving the area, a saggital incision of 1.5-2 cm was made and skin flaps dissected from the skull. A small hole was made in the skull, using a No. 6 dental burr, to allow the tip of a 30 s.w.g. stainless steel cannula to be inserted to the left substantia nigra. This was located by using the following co-ordinates, using skull landmark bregma as the zero reference point; rostral-caudal -2.8; medial-lateral +2.0; dorsal-ventral -8.0 from the surface of the dura, all co-ordinates measured in millimetres. This system of co-ordinates is a modification of the de Groot system as described by Pellegrino et al (A stereotaxic atlas of the rat brain, 2nd Edition, Plenum Press 1979). 6-Hydroxydopamine HBr (2 μg/μl, as base: Sigma Chemical Co.) was injected into the left substantia nigra at 1 μl/min; a total of 8 μg was administered over a period of 4 minutes using an infusion pump (Braun `Perfusor` ED2). After removal of the cannula, the skin flaps were joined with a single everted suture and the animal allowed to recover.
After 21 days, the circling behaviour of the rats was examined. They were placed, individually, in circular plastic arenas (30 cm diameter×12 cm high) for 1 hour, with no access to food or water during this period. […] One `turn` consisted of rotation through 360° in either direction. As rats were always lesioned on the left side of the brain, anticlockwise turns were ipsilateral.
Control values were determined for all rats by observing their spontaneous circling behaviour in the arenas without prior dosing. The mean turns per minute was always less than 1.
The rats were challenged with an intraperitoneal dose of methamphetamine (2 mg/kg) and immediately placed in the arenas. In these experiments circling behaviour was monitored during two periods, 0-1 h and 4-5 h after dosing. Rats giving a mean of more than 5 ipsilateral turns per minute during the first hour in response to methamphetamine were used in subsequent tests. Following selection, the rats were used in groups of 5 or more rats to test the drug under investigation.

[2] = system: brain DOPAC (turnover of dopamine); experiment: Turnover of dopamine in rodent brains by determination of DOPAC concentrations (rat); assay type: in vivo, rat (Sprague-Dawley); conditions: 10 mg/kg oral, 2 h
Excerpt: (7) Measurement of the turnover of dopamine in rodent brains by determination of DOPAC concentrations following drug administration
Inhibition of dopamine reuptake in the brain reduces the rate at which dopamine is synthesised and metabolised (the turnover rate). This can be assessed by measuring the amount of the dopamine metabolite DOPAC (dihydroxyphenylacetic acid) which accumulates in the brains of rats and mice. In addition, the administration of probenecid blocks active transport of DOPAC out of the brain. The subsequent rise in brain DOPAC concentrations is attenuated by drugs which inhibit dopamine reuptake.
One group of animals was killed two hours later. An additional group was administered probenecid (200 mg/kg i.p.; Sigma Chemical Co.) 30 minutes after the drug and then killed after a further 90 minutes. The animals were killed by decapitation and brains were rapidly removed and dissected on an ice-chilled porcelain plate. They were cut longitudinally along the midline; one half was retained for whole brain analysis while the striatum was dissected from the other. Tissues were immediately frozen in liquid N2 and stored over dry ice (-80° C.) until assay. Whole brain tissue was homogenised in 5 volumes 0.4M perchloric acid (containing 0.01% (w/v) Na2 S2 O3, 0.1% (w/v) EDTA) and striata in 600 μl using a Polytron (setting 6; 20 seconds) fitted with a microprobe (PT-7). Samples were then centrifuged at 30,000×g (whole brain samples) or at 3,500×g (striata) using a microfuge (Beckman) set up to take 1200 μl polypropylene tubes. Aliquots (50 μl) of the clear supernatants were then injected automatically into the chromatographic system for the separation and quantification of DOPAC.
High pressure liquid chromatography (HPLC) combined with electrochemical detection (ECD) was employed to assay DOPAC. A mobile phase (0.1M CH3 OH (84:16%) containing 0.1% octanesulphonic acid, 0.1% EDTA and 0.01% Na2 S2 O3) was delivered by a Dupont 870 pump module at a flow-rate of 1.0 ml/min to a reverse-phase analytical column (25×0.4cm) and guard column (both packed with 5 μm Spherisorb ODS 2) maintained at 45° C. in a thermostatically controlled cabinet. Automatic sample injection was provided by a WISP 710B module (Waters Associates) and ECD was performed using a Bioanalytical Systems LC4A controller and cell, with a glassy carbon electrode maintained at +0.65 v versus a Ag-AgCl reference electrode. The controller was set at 20 nA full-scale and output from the cell recorded using a Spectra-Physics 4100 automatic computing integrator. Quantification of DOPAC was effected by the computing integrator after calibration of the HPLC-ECD system using DOPAC of known concentration and including isoprenaline as an internal standard. […]

CC(C)CC(N(C)C)C1(c2ccc(Cl)cc2)CCC1.Cl.O (stereo not shown) [N,N-dimethyl-1-[1-(4-chlorophenyl)cyclobutyl]-3-methylbutylamine hydrochloride monohydrate]
duration of action as an inhibitor of dopamine reuptake (in words) [1]: long lasting action as an inhibitor of dopamine reuptake
ipsilateral turns/min (Mean ± SEM) ([1]; 0-1 hrs after dosing): 3.0 ± 0.6 turns/min
ipsilateral turns/min (Mean ± SEM) ([1]; 4-5 hrs after dosing): 6.7 ± 1.4 turns/min
ipsilateral turns/min (Mean ± SEM) ([1]; 8-9 hrs after dosing): 8.6 ± 1.8 turns/min
ipsilateral turns/min (Mean ± SEM) ([1]; 24-25 hrs after dosing): 6.2 ± 1.7 turns/min
ipsilateral turns/min (Mean ± SEM) ([1]; 48-49 hrs after dosing): 1.7 ± 0.5 turns/min
Brain DOPAC Levels ([2]; A (drug alone), striatum, control 921 ± 56): 601 ± 17 ng/g wet wt
Brain DOPAC Levels ([2]; A (drug alone), whole brain, control 62 ± 5): 36 ± 4 ng/g wet wt
Brain DOPAC Levels ([2]; B (with probenecid 200 mg/kg i.p.), striatum, control 1325 ± 79): 920 ± 70 ng/g wet wt
Brain DOPAC Levels ([2]; B (with probenecid 200 mg/kg i.p.), whole brain, control 169 ± 3): 130 ± 9 ng/g wet wt
